Key:
[1] = cited from earlier work
[2] = test system: SCC-9 HNC cell line; assay: Erlotinib sensitivity assay (CellTitre 96 cell viability); settings: Homo sapiens, SCC-9, 72 h, read-out: Erlotinib sensitivity (EC50)
[3] = test system: FaDu HNC cell line; assay: as above; settings: Homo sapiens, 72 h, read-out: Erlotinib sensitivity (EC50)
[4] = test system: HN5 HNC cell line; assay: as above; settings: Homo sapiens, HN5, 72 h, read-out: Erlotinib sensitivity (EC50)

For C#Cc1cccc(Nc2ncnc3cc(OCCOC)c(OCCOC)cc23)c1 [erlotinib, N-(3-ethynylphenyl)-6,7-bis(2-methoxyethoxy)quinazolin-4-amine], the “Concentration in serum of patients treated with erlotinib” value [1] is listed as 3 to 10 µM, the EC50 [2] is listed as 2150 nM and the EC50 [3] is listed as 8.26 µM. It also gave an EC50 [4] of 640 nM.

Source: patent publication US9051551B2, “Methods and compositions for increasing sensitivity to tyrosine kinase inhibitors” (The University of Western Australia, priority 2009, dated 2015)
